Results from patent publication US9187471B2, “Pyrido [4,3-b] indole and pyrido [3,4-b] indole derivatives and methods of use” (Medivation Technologies, Inc., priority 2010, dated 2015).

Target: T1, human recombinant adrenergic α1D receptor (Homo sapiens, UniProt P25100)
T1 construct: expressed in transfected cells; host or cells: HEK-293
T1 sequence (P25100 1-572): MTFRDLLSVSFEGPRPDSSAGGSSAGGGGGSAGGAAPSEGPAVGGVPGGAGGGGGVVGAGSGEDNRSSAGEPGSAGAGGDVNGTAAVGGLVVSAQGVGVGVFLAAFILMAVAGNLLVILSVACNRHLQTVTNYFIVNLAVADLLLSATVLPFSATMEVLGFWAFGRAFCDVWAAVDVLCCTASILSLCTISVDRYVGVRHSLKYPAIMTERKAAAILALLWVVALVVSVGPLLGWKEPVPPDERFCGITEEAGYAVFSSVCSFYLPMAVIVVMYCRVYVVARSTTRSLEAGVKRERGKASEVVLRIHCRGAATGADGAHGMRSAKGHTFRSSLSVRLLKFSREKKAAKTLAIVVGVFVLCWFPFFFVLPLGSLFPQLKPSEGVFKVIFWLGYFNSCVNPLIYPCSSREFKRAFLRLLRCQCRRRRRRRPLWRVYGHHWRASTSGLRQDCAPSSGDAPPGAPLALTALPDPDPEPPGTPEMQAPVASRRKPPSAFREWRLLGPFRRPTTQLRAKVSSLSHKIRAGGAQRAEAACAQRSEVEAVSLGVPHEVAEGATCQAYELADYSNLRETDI
Experiment: Adrenergic α1D radioligand binding ([3H]Prazosin)
Conditions: read-out: Adrenergic (0.1 μM) a1D, percent inhibition of specific binding; compound at 0.1 μM; 0.6 nM [3H]Prazosin
Description: Compounds of invention were incubated with 0.6 nM [^3H]Prazosin for 60 min at 25° C. Non-specific binding was estimated in the presence of 10 μM phentolamine. Receptor proteins were filtered and washed, the filters were then counted to determine [^3H]Prazosin specifically bound. […] Compounds of the invention were tested in this biochemical assay and percent inhibition of specific binding was determined.

Compound CNC(=O)c1cccc(-c2ccc(-n3c4c(c5cc(C)ccc53)CN(C)CC4)nc2)c1 [Compound No. 143, 3-(6-(2,8-dimethyl-3,4-dihydro-1H-pyrido[4,3-b]indol-5(2H)-yl)pyridin-3-yl)-N-methylbenzamide] has an inhibition at 0.1 µM of 72%.
